Assay results published in US20090137664A1, “SAURURUS CERNUUS COMPOUNDS THAT INHIBIT CELLULAR RESPONSES TO HYPOXIA” (priority 2003, published 2009).

Experiments:
Type in all cases: cell-based
SF-539 = test: NCI in vitro cell line screen (SRB), CNS Cancer SF-539
Procedure: (§1) For exemplary purposes, an embodiment of the present invention was tested for activity with respect to certain cancer cell lines. The following Tables show results from in vitro 60-cell line antitumor testing from the US National Cancer Institute Developmental Therapeutics Program (NCI-DTP) on compound 2. The testing was in connection with the NCI's In Vitro Cell Line Screening Project (IVCLSP). Detailed information regarding the experiments and their interpretation is available from the NCI.

U251 = test: NCI in vitro cell line screen (SRB), CNS Cancer U251
Procedure: as §1

UACC-62 = test: NCI in vitro cell line screen (SRB), Melanoma UACC-62
Procedure: as §1

786-0 = test: NCI in vitro cell line screen (SRB), Renal Cancer 786-0
Procedure: as §1

NCI/ADR-RES = test: NCI in vitro cell line screen (SRB), Breast Cancer NCI/ADR-RES
Procedure: as §1
Antitumor agents with tumor-specific selectivity are highly desired, in order to reduce the incidence of non-selective cytotoxicity to patients. […] This is of special importance since this NCI/ADR-RES cell line is resistant to many currently used antitumor agents such as adriamycin, taxol, and others.

[1] = Homo sapiens, read-out: LC50 (the source's name)
[2] = NCI/ADR-RES, Log10 Concentration −4.0 Molar
[3] = NCI/ADR-RES, Log10 Concentration −5.0 Molar
[4] = NCI/ADR-RES, Log10 Concentration −6.0 Molar
[5] = NCI/ADR-RES, Log10 Concentration −7.0 Molar
[6] = NCI/ADR-RES, Log10 Concentration −8.0 Molar

**Q.** What does the source list for `COc1ccc([C@@H](O)[C@@H](C)Oc2ccc([C@H]3O[C@H](c4ccc(O[C@H](C)[C@H](O)c5ccc6c(c5)OCO6)c(OC)c4)[C@H](C)[C@H]3C)cc2OC)cc1OC` [Compound 2, manassantin B]?
**A.** TGI (SF-539): >1.00E−4 Molar; GI50 (SF-539; Homo sapiens): 6.28 µM; CC50 (SF-539; [1]): > 100 µM; Mean Optical Densities (SF-539; Log10 Concentration −4.0 Molar): 0.535; Percent Growth (SF-539; Log10 Concentration −4.0 Molar): 21%; Mean Optical Densities (SF-539; Log10 Concentration −5.0 Molar): 0.629; Percent Growth (SF-539; Log10 Concentration −5.0 Molar): 41%; Mean Optical Densities (SF-539; Log10 Concentration −6.0 Molar): 0.848; Percent Growth (SF-539; Log10 Concentration −6.0 Molar): 87%; Mean Optical Densities (SF-539; Log10 Concentration −7.0 Molar): 0.914; Percent Growth (SF-539; Log10 Concentration −7.0 Molar): 101%; Mean Optical Densities (SF-539; Log10 Concentration −8.0 Molar): 0.880; Percent Growth (SF-539; Log10 Concentration −8.0 Molar): 94%; TGI (U251): 7.27E−5 Molar; GI50 (U251; Homo sapiens, U-251): < 0.01 µM; CC50 (U251; Homo sapiens, U-251, read-out: LC50 (the source's name)): > 100 µM; Mean Optical Densities (U251; Log10 Concentration −4.0 Molar): 0.267; Percent Growth (U251; Log10 Concentration −4.0 Molar): −2%; Mean Optical Densities (U251; Log10 Concentration −5.0 Molar): 0.335; Percent Growth (U251; Log10 Concentration −5.0 Molar): 15%; Mean Optical Densities (U251; Log10 Concentration −6.0 Molar): 0.418; Percent Growth (U251; Log10 Concentration −6.0 Molar): 35%; Mean Optical Densities (U251; Log10 Concentration −7.0 Molar): 0.444; Percent Growth (U251; Log10 Concentration −7.0 Molar): 41%; Mean Optical Densities (U251; Log10 Concentration −8.0 Molar): 0.443; Percent Growth (U251; Log10 Concentration −8.0 Molar): 41%; TGI (UACC-62): >1.00E−4 Molar; GI50 (UACC-62; Homo sapiens): 4.47 µM; CC50 (UACC-62; [1]): > 100 µM; Mean Optical Densities (UACC-62; Log10 Concentration −4.0 Molar): 0.573; Percent Growth (UACC-62; Log10 Concentration −4.0 Molar): 16%; Mean Optical Densities (UACC-62; Log10 Concentration −5.0 Molar): 0.697; Percent Growth (UACC-62; Log10 Concentration −5.0 Molar): 35%; Mean Optical Densities (UACC-62; Log10 Concentration −6.0 Molar): 0.971; Percent Growth (UACC-62; Log10 Concentration −6.0 Molar): 78%; Mean Optical Densities (UACC-62; Log10 Concentration −7.0 Molar): 1.072; Percent Growth (UACC-62; Log10 Concentration −7.0 Molar): 93%; Mean Optical Densities (UACC-62; Log10 Concentration −8.0 Molar): 1.038; Percent Growth (UACC-62; Log10 Concentration −8.0 Molar): 88%; TGI (786-0): >1.00E−4 Molar; GI50 (786-0; Homo sapiens): 7.74 µM; CC50 (786-0; [1]): > 100 µM; Mean Optical Densities (786-0; Log10 Concentration −4.0 Molar): 0.806; Percent Growth (786-0; Log10 Concentration −4.0 Molar): 38%; Mean Optical Densities (786-0; Log10 Concentration −5.0 Molar): 0.888; Percent Growth (786-0; Log10 Concentration −5.0 Molar): 46%; Mean Optical Densities (786-0; Log10 Concentration −6.0 Molar): 1.309; Percent Growth (786-0; Log10 Concentration −6.0 Molar): 84%; Mean Optical Densities (786-0; Log10 Concentration −7.0 Molar): 1.361; Percent Growth (786-0; Log10 Concentration −7.0 Molar): 89%; Mean Optical Densities (786-0; Log10 Concentration −8.0 Molar): 1.398; Percent Growth (786-0; Log10 Concentration −8.0 Molar): 92%; inhibition of the NCI/ADR-RES breast tumor cell line (NCI/ADR-RES): potently inhibits; GI50 (NCI/ADR-RES; Homo sapiens, NCI/ADR-RES): 0.107 µM; CC50 (NCI/ADR-RES; Homo sapiens, NCI/ADR-RES, read-out: LC50 (the source's name)): > 100 µM; TGI (NCI/ADR-RES; NCI/ADR-RES): >1.00E−4 Molar; Mean Optical Densities (NCI/ADR-RES; [2]): 0.982; Percent Growth (NCI/ADR-RES; [2]): 5%; Mean Optical Densities (NCI/ADR-RES; [3]): 1.133; Percent Growth (NCI/ADR-RES; [3]): 20%; Mean Optical Densities (NCI/ADR-RES; [4]): 1.389; Percent Growth (NCI/ADR-RES; [4]): 45%; Mean Optical Densities (NCI/ADR-RES; [5]): 1.445; Percent Growth (NCI/ADR-RES; [5]): 50%; Mean Optical Densities (NCI/ADR-RES; [6]): 1.518; Percent Growth (NCI/ADR-RES; [6]): 57%
